Data from patent US20240409536A1, “COMPOUNDS AND METHODS FOR MODULATING SPLICING” (REMIX THERAPEUTICS INC., priority 2021, published 2024).
Read-outs that look alike come from different tables or passages of the source. One block for each molecule: values may come before it.

Assays:
HTT mRNA [1] = experiment: Gene panel canonical junction qPCR assay, HTT CJ mRNA decrease; format: cell-based, human; conditions: Homo sapiens
Description: (§1) Compounds described herein were used to modulate RNA transcript abundance in cells. The expression of a target mRNA was measured by detecting the formation of an exon-exon junction in the canonical transcript (CJ). A compound mediated exon-inclusion event was detected by observing an increase in formation of a new junction with an alternative exon (AJ). Real-time qPCR assays were used to detect these splicing switches and interrogate the potency of various compounds towards different target genes. A high-throughput real time quantitative PCR (RT-qPCR) assay was developed to measure these two isoforms of the mRNA (CJ and AJ) for exemplary genes, such as HTT, SMN2, and MYB, together with a control housekeeping gene, GAPDH or GUSB or PPIA, used for normalization. Briefly, the A673 or K562 cell line was treated with various compounds described herein (e.g., compounds of Formula (I), (I), or (III)). After treatment, the levels of the HTT, MYB, or SMN2 mRNA targets were determined from each sample of cell lysate by cDNA synthesis followed by qPCR.
(§2) The data analysis was performed by first determining the ΔCt vs the housekeeper gene. This ΔCt was then normalized against the DMSO control (ΔΔCt) and converted to RQ (relative quantification) using the 2^(−ΔΔCt) equation. The RQ were then converted to a percentage response by arbitrarily setting an assay window of 3.5 and 4.0 ΔCt for HTT-CJ and MYB-CJ respectively and an assay window of 9 and 3 ΔCt for HTT-AJ and MYB-AJ in 96 well format (50,000 K562 cells/well and 15,000 A673 cells per well) and an assay window of 3 and 4 ΔCt for HTT-CJ and MYB-CJ respectively and an assay window of 5 and 3 ΔCt for HTT-AJ and MYB-AJ respectively in 384 well format (8,000 K562 cells/well example). […] The percentage response was then fitted to the 4 parametric logistic equation to evaluate the concentration dependence of compound treatment. The increase in AJ mRNA is reported as AC50 (compound concentration having […] in AJ increase) while the decrease in CJ mRNA levels is reported as IC50 (compound concentration having 50) response in CJ decrease).
(§3) Additional studies were carried out for a larger panel of genes using the protocol provided above. The junction between flanking upstream and downstream exons was used to design canonical junction qPCR assays. At least one of the forward primer, reverse primer or the CY5-labeled 5′ nuclease probe (with 3′ quencher such as ZEN/Iowa Black FQ) was designed to overlap with the exon junction to capture the CJ mRNA transcript. BLAST was used to confirm the specificity of the probeset and parameters such as melting temperature, GC content, amplicon size, and primer dimer formation are considered during their design. Data for the decrease in CJ mRNA levels for four exemplary genes (HTT, SMN2, MYB, and Target C) analyzed in this panel are reported as IC50 (compound concentration having […] in CJ decrease).
(§4) A summary of the results from the panel is illustrated in Tables 5A and 51B, wherein “A” represents an IC50 of less than 100 nM; “B” represents an IC50 of between 100 nM and 1 μM; and “C” represents an IC50 of between 1 μM and 10 μM; and “D” represents an IC50 of greater than 10 μM.

SMN2 mRNA = experiment: Gene panel canonical junction qPCR assay, SMN2 CJ mRNA decrease; format: cell-based, human; conditions: Homo sapiens
Description: as §1, §2, §3, §4

MYB mRNA [2] = experiment: Gene panel canonical junction qPCR assay, MYB CJ mRNA decrease; format: cell-based, human; conditions: Homo sapiens
Description: as §1, §2, §3, §4

HTT mRNA [3] = experiment: Splicing RT-qPCR assay, HTT canonical (CJ) and alternative (AJ) junction mRNA; format: cell-based; conditions: Homo sapiens, A673 or K562 cells, 24 hours
Description: as §1
(§5) • Cells-to-CT 1-step kit: ThermoFisher A25602, Cells-to-CT lysis reagent: ThermoFisher 4391851C, TaqMan™ Fast Virus 1-Step Master Mix: ThermoFisher 4444436 • GAPDH: VIC-PL, ThermoFisher 4326317E (Assay: Hs99999905_ml)—used for K562/suspension cell lines • GUSB: VIC-PL, ThermoFisher 4326320E (Assay: Hs99999908_ml)—used for K562/suspension cell lines • PPIA: VIC-PL, ThermoFisher 4326316E (Assay: Hs99999904_ml)—used for A673/adherent cell lines
(§6) The A673 cell line was cultured in DMEM with 10% FBS. Cells were diluted with full growth media and plated in a 96-well plate (15,000 cells in 100 ul media per well). The plate was incubated at 37° C. with 5% CO2 for 24 hours to allow cells to adhere. An 11-point 3-fold serial dilution of the compounds was made in DMSO then diluted in media in an intermediate plate. Compounds were transferred from the intermediate plate to the cell plate with the top dose at a final concentration of 10 uM in the well. Final DMSO concentration was kept at or below 0.25%. The cell plate was returned to the incubator at 37° C. with 5% CO2 for an additional 24 hours.
(§7) The K562 cell line was cultured in IMDM with 10% FBS. For K562, cells were diluted with full growth media and plated in either a 96-well plate (50,000 cells in 50 uL media per well) or a 384-well plate (8,000-40,000 cells in 45 uL media per well). An 11-point 3-fold serial dilution of the compounds were made in DMSO then diluted in media in an intermediate plate. Compound was transferred from the intermediate plate to the cell plate with the top dose at a final concentration of 10 uM in the well. Final DMSO concentration was kept at or below 0.25%. Final volume was 100 uL for 96-well plate and 50 uL for 384-well plate. The cell plate was then placed in an incubator at 37° C. with 5% CO2 for 24 hours.
(§8) The cells were then gently washed with 50 uL-100 uL cold PBS before proceeding to addition of lysis buffer. 30 uL-50 uL of room temperature lysis buffer with DNAse I (and optionally RNAsin) was added to each well. Cells were shaken/mixed thoroughly at room temperature for 5-10 minutes for lysis to take place and then 3 uL-5 uL of room temperature stop solution was added and wells were shaken/mixed again. After 2-5 minutes, the cell lysate plate was transferred to ice for RT-qPCR reaction setup. The lysates could also be frozen at −80° C. for later use.
(§9) In some cases, a direct lysis buffer was used. An appropriate volume of 3×lysis buffer (10 mM Tris, 150 mM NaCl, 1.5%-2.5% Igepal and 0.1-1 U/uL RNAsin, pH 7.4) was directly added to either K562 or A673 cells in media and mixed by pipetting 3 times. The plates were then incubated at room temperature with shaking/rocking for 20-50 minutes to allow for lysis to take place. After this time, the cell lysate plate was transferred to ice to set up for the RT-qPCR reactions. The lysates could also be frozen at −80° C. for later use. […]

MYB mRNA [4] = experiment: Splicing RT-qPCR assay, MYB canonical (CJ) and alternative (AJ) junction mRNA; format: cell-based; conditions: Homo sapiens, A673 or K562 cells, 24 hours
Description: as §1, §5, §6, §7, §8, §9

Target C mRNA = experiment: Gene panel canonical junction qPCR assay, Target C CJ mRNA decrease; format: cell-based; conditions: Homo sapiens, decrease in CJ mRNA levels, read-out: Target C IC50
Description: as §1, §2, §3, §4

[5] = decrease in canonical junction mRNA
[6] = increase in alternative junction mRNA
[7] = decrease in CJ mRNA levels, read-out: HTT IC50
[8] = decrease in CJ mRNA levels, read-out: SMN2 IC50
[9] = decrease in CJ mRNA levels, read-out: MYB IC50

Structure (SMILES): Cc1cn2cc(NC(=O)c3ccc(N4CCN(C)C(C)C4)c4ccnnc34)cc(F)c2n1 (stereo not shown) [Compound 129]
IC50 (HTT mRNA [1]; canonical junction qPCR, read-out: HTT IC50 (decrease in CJ mRNA levels)): 1 to 10 µM
IC50 (SMN2 mRNA; canonical junction qPCR, read-out: SMN2 IC50 (decrease in CJ mRNA levels)): < 0.1 µM
IC50 (MYB mRNA [2]; canonical junction qPCR, read-out: MYB IC50 (decrease in CJ mRNA levels)): 0.1 to 1 µM
IC50 (HTT mRNA [3]; [5]): 1 to 10 µM
AC50 (HTT mRNA [3]; [6]): 1 to 10 µM
IC50 (MYB mRNA [4]; [5]): 0.1 to 1 µM
AC50 (MYB mRNA [4]; [6]): 0.1 to 1 µM

Structure (SMILES): Cc1cn2nc(NC(=O)c3sc([C@@H]4CCN[C@H](C)C4)cc3F)cc(C)c2n1 [Compound 576]
IC50 (Target C mRNA): 0.1 to 1 µM
IC50 (HTT mRNA [1]; [7]): 0.1 to 1 µM
IC50 (SMN2 mRNA; [8]): 0.1 to 1 µM
IC50 (MYB mRNA [2]; [9]): < 0.1 µM

Structure (SMILES): Cc1cn2nc(NC(=O)c3sc([C@H]4CCN[C@@H](C)C4)cc3F)cc(C)c2n1 [Compound 577]
IC50 (Target C mRNA): 0.1 to 1 µM
IC50 (HTT mRNA [1]; [7]): 0.1 to 1 µM
IC50 (SMN2 mRNA; [8]): 1 to 10 µM
IC50 (MYB mRNA [2]; [9]): 0.1 to 1 µM

Structure (SMILES): Cc1cn2nc(NC(=O)c3sc([C@H]4CCN[C@H](C)C4)cc3F)cc(C)c2n1 [Compound 578]
IC50 (Target C mRNA): 1 to 10 µM
IC50 (HTT mRNA [1]; [7]): 0.1 to 1 µM
IC50 (SMN2 mRNA; [8]): 1 to 10 µM
IC50 (MYB mRNA [2]; [9]): < 0.1 µM

Structure (SMILES): Cc1cn2nc(NC(=O)c3sc([C@@H]4CCN[C@@H](C)C4)cc3F)cc(C)c2n1 [Compound 579]
IC50 (Target C mRNA): 0.1 to 1 µM
IC50 (HTT mRNA [1]; [7]): < 0.1 µM
IC50 (SMN2 mRNA; [8]): 0.1 to 1 µM
IC50 (MYB mRNA [2]; [9]): < 0.1 µM

Structure (SMILES): Cc1cn2cc(-c3cc(F)c(C(=O)N[C@H]4CCN[C@H](C)C4)s3)nc2c(C)n1 [Compound 583]
IC50 (Target C mRNA): > 10 µM
IC50 (HTT mRNA [1]; [7]): > 10 µM
IC50 (SMN2 mRNA; [8]): > 10 µM
IC50 (MYB mRNA [2]; [9]): 1 to 10 µM

Structure (SMILES): Cc1cn2cc(NC(=O)c3sc(N4C[C@H]5CC[C@@H](C4)N5)cc3F)cc(F)c2n1 [Compound 616]
IC50 (HTT mRNA [1]; [7]): > 10 µM
IC50 (SMN2 mRNA; [8]): > 10 µM
IC50 (MYB mRNA [2]; [9]): 1 to 10 µM

Continued, values first:

IC50 (Target C mRNA): 1 to 10 µM
IC50 (HTT mRNA [1]; [7]): 0.1 to 1 µM
IC50 (SMN2 mRNA; [8]): 1 to 10 µM
IC50 (MYB mRNA [2]; [9]): < 0.1 µM
Structure (SMILES): Cc1cn2cc(NC(=O)c3sc([C@@H]4CCN[C@H](C)C4)cc3F)cc(F)c2n1 [Compound 589]

IC50 (Target C mRNA): 0.1 to 1 µM
IC50 (HTT mRNA [1]; [7]): 0.1 to 1 µM
IC50 (MYB mRNA [2]; [9]): 0.1 to 1 µM
Structure (SMILES): Cc1cn2cc(NC(=O)c3sc([C@H]4CCN[C@@H](C)C4)cc3F)cc(F)c2n1 [Compound 590]

IC50 (Target C mRNA): > 10 µM
IC50 (HTT mRNA [1]; [7]): > 10 µM
IC50 (MYB mRNA [2]; [9]): 0.1 to 1 µM
Structure (SMILES): COc1cc(N2CCNC(C)C2)sc1C(=O)Nc1cc(F)c2nc(C)cn2c1 (stereo not shown) [Compound 597]

IC50 (Target C mRNA): 1 to 10 µM
IC50 (HTT mRNA [1]; [7]): 1 to 10 µM
IC50 (MYB mRNA [2]; [9]): 0.1 to 1 µM
Structure (SMILES): Cc1cn2cc(NC(=O)c3sc(N4CCNC(C)C4)cc3F)cc(F)c2n1 (stereo not shown) [Compound 601]

IC50 (Target C mRNA): > 10 µM
IC50 (HTT mRNA [1]; [7]): 1 to 10 µM
IC50 (MYB mRNA [2]; [9]): 0.1 to 1 µM
Structure (SMILES): CCC1CN(c2cc(F)c(C(=O)Nc3cc(F)c4nc(C)cn4c3)s2)CCN1 (stereo not shown) [Compound 603]

IC50 (HTT mRNA [1]; [7]): 1 to 10 µM
IC50 (SMN2 mRNA; [8]): 1 to 10 µM
IC50 (MYB mRNA [2]; [9]): 0.1 to 1 µM
Structure (SMILES): Cc1cn2cc(NC(=O)c3sc(C4C[C@@H](C)N[C@@H](C)C4)cc3F)cc(F)c2n1 (stereo partly shown) [Compound 620]
